Where two headings read alike, the source gives them in different places.
Key:
FAK = FAK (Homo sapiens (Human), UniProt Q05397); assay: In vitro enzymatic inhibitory activity, FAK kinase (HTRF KinEASE-TK)
NUGC4 cells = assay: Cell proliferation inhibition, NUGC4 (CELL TITER-GLO); assay type: cell-based; details: Homo sapiens, NUGC-4, 96 h; NUGC4, 4 days
Description: (§1) • a. SNU-668 cells (catalog number: 00668, KCLB) or NUGC4 cells (catalog number: 0834, JCRB) were allowed to grow to 70%-80% confluence, the supernatant of the culture medium was pipetitted off, rinsed once with PBS and then pipetitted off; • b. To a 10 cm dish was added 1 mL of 0.25% trypsin, votexed to homogenity and then place into incubator for digestion for 2-3 min; • c. The culture dish is removed from the incubator added with 2-3 mL complete culture medium to terminate the digestion, pipetitted into a 15 mL centrifuge tube, and then centrifuged in centrifuge at 1000 rpm for 5 minutes; • d. The supernatant was pipetitted off, and the cells were resuspended in 1 mL of complete culture medium, and then counted; • e. 1000 cells were plated into each well of 96-well plate, and then cultured overnight in a cell incubator, 2) Cell Administration with Compounds • a. Compounds to be tested were dissolved and votexed to homogeneity; • b. Each compound was serielly diluted in 1:3 ratio from 1 mM stock solution to 9 gradient concentrations; • c. The plate seeded with cells was taken out from the incubator, pipetitted off culture medium, and then added slowly in each well with 100 μL fresh culture medium by multi-channel pipette. Wells are labeled by corresponding compounds and concentrations, and then gently added with 100 μL compound-containing culture medium along the well wall by multi-channel pipette; • d. After the addition to all wells, the plate was gently shaken to allow homogeneous spread of the compound, and then put back to the incubator, with time recorded;
(§2) 4 days after the addition of compounds, the culture medium was removed and mixed at 100 μL from each well with cell titer-glo testing liquid in 1:1 ratio. The mixture was incubated with shaking at room temperature for 10 min and then counted with Plate reader.

SNU-668 cells = assay: Cell proliferation inhibition, SNU-668 (CELL TITER-GLO); assay type: cell-based; details: Homo sapiens, SNU668, 96 h; SNU-668, 4 days
Description: as §1, §2

[1] = In vivo pharmacokinetic evaluation in SD rats, gavage; details: rat, plasma, po, male SD rats
Description: Three male SD rats were administered with compounds in a single dose of 5 mg/kg or 3 mg/kg by gavage, and blood samples were collected before administration and at 0.25, 0.5, 1, 2, 4, 6, 8, and 24 h after administration.
Preparation of solutions of compounds to be dosed at 5 mg/kg: 5.5 mg compound (converted based on purity) was accurately weighed and added to 0.55 mL of DMSO. Clear solutions were obtained after stirring and sonication. 0.5 mL of each of the above solutions was added with 1 mL of Solutol, stirred for 1 minute; and then added with 8.5 mL of physiological saline and stirred for 1 minute, to obtain a clear solution at 0.5 mg/mL concentration.
Preparation of a solution of compounds to be dosed at 3 mg/kg: 3.6 mg compound (converted according to purity) was accurately weighed and added to 0.6 mL of DMSO. Clear solutions were obtained after stirring and sonication. 0.5 mL of each of the above solutions was added with 1 mL of Solutol and stirred for 1 minute; and then added with 8.5 mL of physiological saline and stirred for 1 minute, to obtain a clear solution at 0.3 mg/mL concentration.
Rats were administered the formulations prepared in step 2 by gavage at a dose of 10 mL/kg. The rats were fasted overnight before the administration and resumed feeding 4 hours after administration. Throughout the entire experiment, the animals were free to access drinking water.
The plasma concentration was measured using LC-MS/MS method.

[2] = FAK kinase, enzyme pre-incubation 15 minutes at 25° C.

Chain of FAK (Q05397 whole entry, species assumed): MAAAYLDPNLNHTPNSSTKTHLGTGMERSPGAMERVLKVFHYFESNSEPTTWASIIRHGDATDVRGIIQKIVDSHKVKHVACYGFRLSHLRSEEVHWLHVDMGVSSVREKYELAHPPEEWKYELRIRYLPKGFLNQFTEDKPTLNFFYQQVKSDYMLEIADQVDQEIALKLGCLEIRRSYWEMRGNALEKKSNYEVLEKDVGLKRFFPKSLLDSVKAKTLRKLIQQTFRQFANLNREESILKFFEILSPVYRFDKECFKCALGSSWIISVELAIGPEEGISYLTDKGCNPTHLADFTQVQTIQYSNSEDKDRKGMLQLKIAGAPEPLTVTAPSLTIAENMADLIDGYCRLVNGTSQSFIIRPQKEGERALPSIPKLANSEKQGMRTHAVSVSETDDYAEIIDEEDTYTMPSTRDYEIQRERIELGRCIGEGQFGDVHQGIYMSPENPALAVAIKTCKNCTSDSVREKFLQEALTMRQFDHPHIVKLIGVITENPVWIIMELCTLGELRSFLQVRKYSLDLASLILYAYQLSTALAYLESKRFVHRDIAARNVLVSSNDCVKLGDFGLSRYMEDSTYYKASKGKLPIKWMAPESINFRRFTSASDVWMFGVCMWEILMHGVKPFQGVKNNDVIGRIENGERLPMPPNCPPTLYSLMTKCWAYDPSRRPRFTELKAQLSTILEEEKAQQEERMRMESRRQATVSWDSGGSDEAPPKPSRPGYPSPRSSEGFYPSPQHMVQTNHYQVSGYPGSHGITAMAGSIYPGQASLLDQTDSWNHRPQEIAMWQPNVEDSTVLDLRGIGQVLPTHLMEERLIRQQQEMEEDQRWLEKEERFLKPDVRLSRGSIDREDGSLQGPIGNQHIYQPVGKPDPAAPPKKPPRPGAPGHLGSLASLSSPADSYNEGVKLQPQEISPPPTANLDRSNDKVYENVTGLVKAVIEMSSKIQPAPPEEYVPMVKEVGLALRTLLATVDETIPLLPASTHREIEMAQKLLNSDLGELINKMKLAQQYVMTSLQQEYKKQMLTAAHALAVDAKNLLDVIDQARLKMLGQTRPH

IC50 (FAK; [2])	IC50 (SNU-668 cells)	Structure (SMILES)	IC50 (NUGC4 cells)	also measured
0.00436 µM		C=CC(=O)N1CCCC(c2cccc(NCc3ccc(Nc4ncc(C(F)(F)F)c(NCc5nccnc5N(C)S(C)(=O)=O)n4)cc3)c2)C1 (stereo not shown) [Compound 14, N-(3-(((2-((4-(((3-(1-acryloylpiperidin-3-yl)phenyl)amino)methyl)phenyl)amino)-5-(trifluoromethyl)pyrimidin-4-yl)amino)methyl)pyrazin-2-yl)-N-methylmethanesulfonamide]		
	< 0.01 µM	C#CC(=O)N1CCCC(c2cccc(NCc3ccc(Nc4ncc(C(F)(F)F)c(Nc5ccccc5C(=O)NC)n4)cc3)c2)C1 (stereo not shown) [Compound 31]	0.02 µM	
0.00097 µM		C=CC(=O)N1CCC[C@H](c2cccc(NCc3ccc(Nc4ncc(C(F)(F)F)c(Nc5ccccc5C(=O)NOC)n4)cc3)c2)C1 [Compound 36, (R) 2-((2-((4-(((3-(1-acryloylpiperidin-3-yl)phenyl)amino)methyl)phenyl)amino)-5-(trifluoromethyl)pyrimidin-4-yl)amino)-N-methoxybenzamide]	0.09 µM	AUC(0-inf) ([1]; 3 mg/kg): 0.711 µM·h; AUC(0-t) ([1]; 3 mg/kg): 0.689 µM·h; Cmax ([1]; 3 mg/kg): 146 nM; Tmax ([1]; 3 mg/kg): 2.67 h; half-life ([1]; 3 mg/kg): 1.2 h
	0.11 µM	C=CC(=O)N1CCCC(c2cccc(NCc3ccc(Nc4ncc(Cl)c(Nc5ccccc5C(=O)NC)n4)cc3)c2)C1 (stereo not shown) [Compound 15]		
0.0179 µM	0.14 µM	C=CC(=O)N1CCCC(c2cccc(NCc3ccc(Nc4ncc(C(F)(F)F)c(Nc5ccccc5C(=O)NC(C)C)n4)cc3)c2)C1 (stereo not shown) [Compound 18, 2-((2-((4-(((3-(1-acryloylpiperidin-3-yl)phenyl)amino)methyl)phenyl)amino)-5-(trifluoromethyl)pyrimidin-4-yl)amino)-N-isopropylbenzamide]		
		C=CC(=O)N1CCC[C@@H](c2cccc(NCc3ccc(Nc4ncc(C(F)(F)F)c(Nc5ccccc5C(=O)NOC)n4)cc3)c2)C1 [Compound 37, (S) 2-((2-((4-(((3-(1-acryloylpiperidin-3-yl)phenyl)amino)methyl)phenyl)amino)-5-(trifluoromethyl)pyrimidin-4-yl)amino)-N-methoxybenzamide]	0.12 µM	IC50 (FAK): 0.00135 µM; AUC(0-inf) ([1]; 3 mg/kg): 0.368 µM·h; AUC(0-t) ([1]; 3 mg/kg): 0.361 µM·h; Cmax ([1]; 3 mg/kg): 87.2 nM; Tmax ([1]; 3 mg/kg): 2.67 h; half-life ([1]; 3 mg/kg): 1.07 h
0.00145 µM		C=CC(=O)N1CCC[C@@H](c2cccc(NCc3ccc(Nc4ncc(C(F)(F)F)c(Nc5ccccc5C(=O)NC)n4)cc3)c2)C1 [Compound 35, (S)-2-((2-((4-(((3-(1-acryloylpiperidin-3-yl)phenyl)amino)methyl)phenyl)amino)-5-(trifluoromethyl)pyrimidin-4-yl)amino)-N-methylbenzamide]		AUC(0-inf) ([1]; 5 mg/kg): 0.548 µM·h; AUC(0-t) ([1]; 5 mg/kg): 0.54 µM·h; Cmax ([1]; 5 mg/kg): 130 nM; Tmax ([1]; 5 mg/kg): 2.67 h; half-life ([1]; 5 mg/kg): 0.96 h
0.0158 µM		C=CC(=O)N1CCCC(c2cccc(NCc3ccc(Nc4ncc(C(F)(F)F)c(Nc5ccccc5P(C)(C)=O)n4)cc3)c2)C1 (stereo not shown) [Compound 10, 1-(3-(3-((4-((4-((2-(dimethylphosphoryl)phenyl)amino)-5-(trifluoromethyl)pyrimidin-2-yl)amino)benzyl)amino)phenyl)piperidin-1-yl)prop-2-en-1-one]		
		C=C(C)C(=O)N1CCCC(c2cccc(NCc3ccc(Nc4ncc(C(F)(F)F)c(Nc5ccccc5C(=O)NC)n4)cc3)c2)C1 (stereo not shown) [Compound 24, 2-((2-((4-(((3-(1-methylacryloylpiperidin-3-yl)phenyl)amino)methyl)phenyl)amino)-5-(trifluoromethyl)pyrimidin-4-yl)amino)-N-methylbenzamide]	0.02 µM	
0.00613 µM	< 0.01 µM	C=CC(=O)N1CCCC(c2cccc(NCc3ccc(Nc4ncc(C(F)(F)F)c(Nc5ccccc5C(=O)NCC)n4)cc3)c2)C1 (stereo not shown) [Compound 17, 2-((2-((4-(((3-(1-acryloylpiperidin-3-yl)phenyl)amino)methyl)phenyl)amino)-5-(trifluoromethyl)pyrimidin-4-yl)amino)-N-ethylbenzamide]		
0.00343 µM		C/C=C/C(=O)N1CCCC(c2cccc(NCc3ccc(Nc4ncc(C(F)(F)F)c(Nc5ccccc5C(=O)NC)n4)cc3)c2)C1 (stereo not shown) [Compound 32, (E)-2-((2-((4-(((3-(1-(but-2-enoyl)piperidin-3-yl)phenyl)amino)methyl)phenyl)amino)-5-(trifluoromethyl)pyrimidin-4-yl)amino)-N-methylbenzamide]	0.04 µM	
0.00358 µM		C=CC(=O)N1CCC(CNC(=O)c2ccc(Nc3ncc(C(F)(F)F)c(Nc4ccccc4P(C)(C)=O)n3)cc2)CC1 [Compound 7, N-((1-acryloylpiperidin-4-yl)methyl)-4-((4-((2-(dimethylphosphoryl)phenyl)amino)-5-(trifluoromethyl)pyrimidin-2-yl)amino)benzamide]		
0.00375 µM	0.09 µM	C=CC(=O)N1CCCC(c2cccc(NCc3ccc(Nc4ncc(C(F)(F)F)c(Nc5ccccc5S(=O)(=O)NC)n4)cc3)c2)C1 (stereo not shown) [Compound 30, 2-((2-((4-(((3-(1-acryloylpiperidin-3-yl)phenyl)amino)methyl)phenyl)amino)-5-(trifluoromethyl)pyrimidin-4-yl)amino)-N-methylbenzenesulfonamide]		
0.00127 µM		C=CC(=O)N1CCC[C@H](c2cccc(NCc3ccc(Nc4ncc(C(F)(F)F)c(Nc5ccccc5C(=O)NC)n4)cc3)c2)C1 [Compound 34, (R)-2-((2-((4-(((3-(1-acryloylpiperidin-3-yl)phenyl)amino)methyl)phenyl)amino)-5-(trifluoromethyl)pyrimidin-4-yl)amino)-N-methylbenzamide]	0.08 µM	
0.00673 µM	0.06 µM	C=CC(=O)N1CCCC(c2cccc(NCc3ccc(Nc4ncc(Br)c(Nc5ccccc5C(=O)NC)n4)cc3)c2)C1 (stereo not shown) [Compound 16, 2-((2-((4-(((3-(1-acryloylpiperidin-3-yl)phenyl)amino)methyl)phenyl)amino)-5-bromopyrimidin-4-yl)amino)-N-methylbenzamide]		
		C=C(F)C(=O)N1CCCC(c2cccc(NCc3ccc(Nc4ncc(C(F)(F)F)c(Nc5ccccc5C(=O)NC)n4)cc3)c2)C1 (stereo not shown) [Compound 33, 2-((2-((4-(((3-(1-(2-fluoroacryloyl)piperidin-3-yl)phenyl)amino)methyl)phenyl)amino)-5-(trifluoromethyl)pyrimidin-4-yl)amino)-N-methylbenzamide]	0.02 µM	
0.00498 µM		C=CC(=O)N1CCCC(c2cccc(NCc3ccc(Nc4ncc(C(F)(F)F)c(Nc5cccc6c5C(=O)N(C)C6)n4)cc3)c2)C1 (stereo not shown) [Compound 20, 7-((2-((4-(((3-(1-acryloylpiperidin-3-yl)phenyl)amino)methyl)phenyl)amino)-5-(trifluoromethyl)pyrimidin-4-yl)amino)-2-methylisoindolin-1-one]	0.34 µM	
0.00433 µM		CC#CC(=O)N1CCCC(c2cccc(NCc3ccc(Nc4ncc(C(F)(F)F)c(Nc5ccccc5C(=O)NC)n4)cc3)c2)C1 (stereo not shown) [Compound 21, 2-((2-((4-(((3-(1-(2-butynoyl)piperidin-3-yl)phenyl)amino)methyl)phenyl)amino)-5-(trifluoromethyl)pyrimidin-4-yl)amino)-N-methylbenzamide]	0.04 µM	
0.00579 µM		C=CC(=O)N1CCC(CNC(=O)c2ccc(Nc3ncc(C(F)(F)F)c(Nc4ccccc4P(C)(C)=O)n3)c(OC)c2)CC1 [Compound 8, N-((1-acryloylpiperidin-4-yl)methyl)-4-((4-((2-(dimethylphosphoryl)phenyl)amino)-5-(trifluoromethyl)pyrimidin-2-yl)amino)-3-methoxybenzamide]		

Structure (SMILES)	IC50 (FAK; [2])	IC50 (SNU-668 cells)	IC50 (NUGC4 cells)	also measured
C=CC(=O)N1CCC(NC(=O)c2ccc(Nc3ncc(C(F)(F)F)c(NCc4nccnc4N(C)S(C)(=O)=O)n3)c(OC)c2)CC1 [Compound 1, N-(1-acryloylpiperidin-4-yl)-3-methoxy-4-((4-(((3-(N-methylmethanesulfonylamido)pyrazin-2-yl)methyl)amino)-5-(trifluoromethyl)pyrimidin-2-yl)amino)benzamide]	0.00113 µM			
